# Legend:
# [1] = Fluorescence measurement in solution with GSH; conditions: 100 nM probe
# Procedure: The 100 nM probe (compound 4) was allowed to react with 10 mM GSH in 50 mM Tris-HCl (pH 7.4) at 37° C. for 30 minutes. Thereafter, the fluorescence intensity was measured using a fluorescence spectrometer (FP-6500; JASCO) (excitation wavelength: 540 nm).
# HL60 = test: Flow cytometry of HL60 cells; type: cell-based; conditions: 100 μM probe, 37° C., 15 minutes; control pre-treated with 1 mM N-methylmaleimide 30 minutes
# Procedure: The 100 μM probe (compound 4) was added to HL60, and the mixture was then reacted at 37° C. for 15 minutes. Thereafter, a measurement was then carried out by flow cytometry. 1 mM N-methylmaleimide (N-MMI) used as a thiol-blocking agent was added to HL60, and the obtained mixture was then reacted at 37° C. for 30 minutes. Thereafter, the 100 μM probe was added to the reaction product, and the obtained mixture was reacted at 37° C. for 15 minutes. Thereafter, the measurement was carried out by flow cytometry.
# [2] = Reactivity of probe with thiol (fluorescence intensity at 522 nm); conditions: 1 μM probe, 37° C., 30 minutes, 50 mM Tris-HCl pH 7.4
# Procedure: The reactivity of the probe (compound 2) with several types of thiols was examined by measuring an increase in the fluorescence intensity at 522 nm. The reaction was carried out using the 1 μM probe and 1 mM thiol at 37° C. for 30 minutes in 50 mM Tris-HCl (pH 7.4).
# In addition, as a comparative example, a compound represented by the following formula (3) was used as a probe, and its reactivity was examined in the same above manner:
# After addition of thiol, the solution was incubated at 37° C. for 30 minutes. The fluorescence at 522 nm was monitored by excitation at 490 nm. “3′-thio dT” indicates 3′-phosphorothioate-2′-deoxythymidine; “DTT” indicates dithiothreitol; “GSH” indicates glutathione; “L-Gly” indicates L-glycine; and “Vc” indicates ascorbic acid.
# HeLa cells = test: Fluorescence microscope observation of living HeLa cells; type: cell-based
# Procedure: HeLa cells were allowed to grow at 37° C. in a 5% CO2 atmosphere in MEM in order to use them for a test with living cells. The cells were incubated at 37° C. for 15 minutes in the presence of the 25 μM probe (compound 2) (1:100 DMSO/PBS(−), v/v). As a control experiment, the cells were treated with 1 mM N-methylmaleimide in PBS(−) at 37° C. for 60 minutes, and the resultant cells were then washed with a PBS(−) buffer three times. Thereafter, the cells were incubated at 37° C. for 15 minutes in the presence of the 25 μM probe (1:100 DMSO/PBS(−), v/v).
# The fluorescence image was obtained using a digital camera (Cool Snap HQ; Roper Scientific) and imaging software (MetaMorph; Molecular Devices), under a fluorescence microscope equipped with a mercury lamp (Axiovert 200M; Carl Zeiss). The conditions of the microscope were determined as follows. Excitation: 470/40 bandpass filter; light emission: 525/50 bandpass filter; and irradiation time: 300 msec.
# (a, b): a control image of the cells, which were pre-treated with N-methylmaleimide (1 mM) at 37° C. for 60 minutes and were then incubated together with the probe (25 μM) at 37° C. for 15 minutes; (c, d): an image of the cells, which were incubated together with the probe (25 μM) at 37° C. for 15 minutes; (a, c) a bright-field image; (b, d) a fluorescent image. The conditions of the microscope were determined as follows. Excitation: 470/40 bandpass filter; light emission: 525/50 bandpass filter; and irradiation time: 300 msec.
# [3] = Stability of probe on heating in Tris buffer; type: physicochemical; conditions: 55° C. for 24 hours in 50 mM Tris buffer (pH 7.4)
# [4] = Fluorescence measurement of probe with cysteine; conditions: 100 nM probe
# Procedure: The reaction was carried out using the 100 nM probe (compound 2) and 10 mM cysteine at 37° C. for 30 minutes in 50 mM Tris-HCl (pH 7.4). A fluorescence spectrum was obtained with a fluorescence spectrometer (FP-6500; JASCO). Fluorescence was obtained by excitation at 490 nm at a scanning range of 450 to 650 nm.
# Fluorescence was monitored by excitation at 490 nm.
# [5] = cited from earlier work
structure (smiles),measurement,setting,value
Nc1ccc2nc3c4ccccc4/c(=N\S(=O)(=O)c4ccc([N+](=O)[O-])cc4[N+](=O)[O-])cc-3oc2c1 [compound 4],fluorescence intensity at 620 nm after reaction with GSH,"[1]; 10 mM GSH, 37° C., 30 minutes, 50 mM Tris-HCl pH 7.4, excitation 540 nm",an increase in the fluorescence intensity was observed
same,fluorescence of the probe as a single body (without GSH),"[1]; excitation 540 nm, 50 mM Tris-HCl pH 7.4",generated no fluorescence
same,fluorescence intensity of HL60 cells (−N-MMI) versus HL60 cells (+N-MMI),HL60,higher
"O=C1OC2(c3ccc(NS(=O)(=O)c4ccc([N+](=O)[O-])cc4)cc3Oc3cc(NS(=O)(=O)c4ccc([N+](=O)[O-])cc4)ccc32)c2ccccc21 [formula (3), reference compound]",increase in fluorescence intensity at 522 nm,[2]; 1 mM phosphorothioate (3′-thio dT),approximately 950 times
same,reaction with other thiol groups,[2]; 1 mM thiols other than phosphorothioate,did not react with other thiol groups
O=C1OC2(c3ccc(NS(=O)(=O)c4ccc([N+](=O)[O-])cc4[N+](=O)[O-])cc3Oc3cc(NS(=O)(=O)c4ccc([N+](=O)[O-])cc4[N+](=O)[O-])ccc32)c2ccccc21 [compound 2],fluorescence signal of cells pre-treated with thiol-blocking agent,"HeLa cells; HeLa cells pre-treated with 1 mM N-methylmaleimide 60 minutes, then 25 μM probe 15 minutes",no fluorescence signal was observed
same,permeation into cells,"HeLa cells; HeLa cells, 25 μM probe",permeates into the cell membrane
same,fluorescence signal of cells,"HeLa cells; HeLa cells, 25 μM probe, 15 minutes, 37° C.",significant fluorescence signal
same,stability: fluorescence signal after heating,[3],no increase in the fluorescence signal was detected
same,increase in fluorescence intensity at 522 nm,[2]; 1 mM 2-mercaptoethanol (ME),11 times
same,activity on other biological substances (selectivity),"[2]; glycine, ascorbic acid, or hydrogen peroxide",did not exhibit activity
same,increase in fluorescence intensity around 520 nm after addition of cysteine (factor),"[4]; 10 mM cysteine, 50 mM Tris-HCl pH 7.4, 37° C., 30 minutes, excitation 490 nm",approximately 3500
same,fluorescence of the probe without cysteine,"[4]; no cysteine, 50 mM Tris-HCl pH 7.4, excitation 490 nm",no significant fluorescence was observed
OCCS [2-mercaptoethanol],pKa value,[5],9.5
